Experimental data published in patent US9901615B2, “Method for treatment of gastric ulcers” (priority 2015, dated 2018).
Where no end group is shown, it is not given here.

What was measured:
[1] = test system: H. pylori ATCC 43504; type: cell-based, Helicobacter pylori
Procedure: (§1) H. pylori cells undergoing exponential growth were suspended in sterile phosphate-buffered saline (PBS), and adjusted to 0.05 OD using BHI broth; the inoculum was dispensed onto a microtitre plate. Peptide TP4 was prepared at various concentrations (0.04 to 50 μg mL-1) using PBS. Antibiotic resistant clinical isolate CI-HC-028 and three reference strains were used for susceptibility testing. The MIC was defined as the lowest concentration of the drug at which there was no visible growth. For quality control and comparative analyses, the susceptibility of all four H. pylori strains to the antibiotics amoxicillin, clarithromycin, and metronidazole were also examined.

[2] = test system: H. pylori ATCC 43629; type: cell-based, Helicobacter pylori
Procedure: as §1

[3] = test system: H. pylori ATCC 700392; type: cell-based, Helicobacter pylori
Procedure: as §1

[4] = test system: H. pylori clinical isolate CI-HC-028; experiment: Anti-H. pylori assessment in vitro (MIC), Example 2; type: cell-based, Helicobacter pylori; settings: NE: No effect
Procedure: as §1

[5] = Acute oral toxicity of Epi-1; type: in vivo; settings: 125 mg/kg, mice
Procedure: Acute oral toxicity was assessed in mice with 6 animals per group, by single oral administration of Epi-1 at 125 mg/kg body weight. Animals were placed under observation for about 48 hr. The mortality, morbidity rate, and clinical signs were recorded.

[6] = Sub-acute oral toxicity of Epi-1; type: in vivo, mice
Procedure: Sub-acute oral toxicity was assessed with over a test period of 14 days in which mice were given 600 μg/mouse/day. During the study period, animals were observed daily for clinical signs and mortality.

[7] = Eye irritation test of Epi-1 in rabbits; settings: for Reversibility: 7 days then recovery
Procedure: This study used healthy young adults of the New Zealand white albino rabbit breed. […] The eyes were examined on days 1, 3, 5, and 7, and then allowed to recover until day 14; at this time, clinical observation scores were recorded, and grades assigned for ocular reactions observed during each examination.

[8] = 2.5 mg applied to skin, daily for 7 days, Balb/c mice
Procedure: Dermal toxicity was assessed in Balb/c mice, through administering daily doses of Epi-1 (2.5 mg/animal) for 7 days [40, 41]. Animals were kept under observation for a minimum of 48 h. Skin abnormalities were recorded.

[9] = Acute oral toxicity of TP4; parameters: species or system C3H/HeN mice; settings: single oral dose, 10-fold the in vivo therapeutic dose, 24 hours
Procedure: (§2) Acute toxicity was assessed in C3H/HeN mice with 6 animals per group, by single oral administration of TP4 (125 mg/kg). […] Subacute toxicity: animals were administered with TP4 (600 μg dose/day) for 14 days. During dose administration, the animals were observed every day for any signs of toxicity for 28 days test period. The morbidity, mortality, and other clinical signs were recorded and assessed.

[10] = Sub-acute oral toxicity of TP4; type: in vivo, C3H/HeN mice; settings: 3-fold therapeutic doses orally for 14 days, observed days 1 to 28
Procedure: as §2

[11] = Dermal toxicity of TP4; type: in vivo, C3H/HeN mice; settings: for appearance of the skin: mice, 48 h post-exposure, 125 mg/kg TP4 or 20% SDS (FIG. 17B)
Procedure: TP4 (125 mg/kg) was applied onto the mouse skin (topical).

[12] = Eye irritation test of TP4 in New Zealand White rabbits; type: in vivo; settings: for ocular appearance: rabbits treated with 50 mg/kg TP4 or SDS for 7 days, observed daily (FIG. 17A); for Abnormality iris, grading / Chemosis, grading / Conjunctivae redness, grading / Corneal opacity, grading: rabbits, OECD 405 grading
Procedure: Healthy young adults rabbit eyes were treated with TP4, PBS (vehicle control), or 0.1% SDS (positive control). […] […] Clinical signs were recorded during the test period, and grades were assigned for ocular reactions during examination.

[13] = test system: H. pylori; experiment: Transmission electron microscopy (Epi-1); type: cell-based, Helicobacter pylori
Procedure: Transmission electron microscopy was used to examine Epi-1 induced morphological changes of H. pylori. The samples were fixed and processed as previously described. All samples were examined with an FEI Tecnai G2 F20 S-TWIN transmission electron microscope (FEI Company, Hillsboro, Oreg.) operating at an accelerating voltage of 80 kV. Images were recorded with a charge-coupled device camera at various magnifications.

[14] = test system: resistant clinical isolate CI-HC-028; experiment: Time-based susceptibility of resistant isolate to TP4 and antibiotics; type: cell-based, Helicobacter pylori; settings: CI-HC-028, at MIC
Procedure: (§3) TP4 peptide solutions (100 μl) at concentrations corresponding to ¼, ½, 1, 2, and 4 fold the MIC were prepared and added to an equal volume of solution containing H. pylori counts of approximately 10^7 CFU mL-1 onto a microtitre plate. The plates were incubated at 37° C., and samples were collected at 1, 3, 6, 12, and 24 h and plated with appropriate dilutions onto blood agar plates; bacterial counts were enumerated and expressed as mean log (CFU mL-1) with standard error.
The bactericidal activities of TP4 and conventional antibiotics against resistant clinical isolate CI-HC-028 were compared. Certain resistant strains of H. pylori was previously reported to be resistant to metronidazole and clarithromycin 27. […] Thus, there is no correlation between multidrug resistant (MDR) phenotype and vulnerability to TP4.

[15] = test system: H. pylori; experiment: Development of drug resistance on passage at sub-inhibitory doses; type: cell-based, Helicobacter pylori; settings: passages at sub-inhibitory doses in vitro
Excerpt: A major driver of drug resistance development is inappropriate antibiotic use and poor compliance with therapeutic regimens. 28 Here, we established a model for simulating conditions of drug resistance emergence: bacteria were exposed to sub-inhibitory doses of antibiotics (AMOX, CLRN, METZ), or peptide TP4 in vitro (see supplementary material methods).

[16] = test system: H. pylori; experiment: Transmission electron microscopy (TP4); type: cell-based, Helicobacter pylori; settings: 2 h post exposure
Procedure: Transmission electron microscopy (TEM) was used to examine the TP4 mechanism of action on H. pylori, overall cell morphology, TP4 translocation into H. pylori, and interaction of TP4 with internal targets. H. pylori overnight cultures from BHI-blood agar plates were collected, and 0.1 OD inocula were incubated with TP4, Amoxicillin, and/or PBS (PBS only: negative control). […] The cells were then fixed and processed for TEM using previously described methods, with some modifications. Briefly, cells were dehydrated in a graduated series of ethanol, followed by resin polymerization at 65° C. for 3 days. An EM ultramicrotome was used to slice thin sections of 70- to 80-nm thickness from the polymerized blocks, which were then loaded on 400-mesh copper grids. The sections were post stained with 2% uranyl acetate for 15 min and then lead citrate for 5 min, before being mounted for observation using an FEI Tecnai G2 F20 S-TWIN transmission electron microscope (FEI Company, Hillsboro, Oreg.) operating at 80 keV. […] Each grid was scrutinized with the same settings. Images were recorded with a 4MP SPOT Insight charge-coupled-device (CCD) camera.

[17] = test system: H. pylori; experiment: Dose and time-dependent killing by TP4; type: cell-based, Helicobacter pylori; settings: at 2×MIC
Procedure: as §3

## FIHHIIGGLFSVGKHIHSLIHGH [TP3]
[1]
  MIC: 8 to 12 µg/mL
[2]
  MIC: 8 to 12 µg/mL
[3]
  MIC: 8 to 12 µg/mL
[4]
  MIC: 8 to 12 µg/mL

## GFIFHIIKGLFHAGKMIHGLV-NH2 [Epi-1, Epinecidin-1]
[5]
  clinical abnormalities, morbidity, death: did not induce any clinical abnormalities, morbidity, or death
[6]; after acute and sub-acute oral administration
  whole blood biochemistry (GOT, GPT, BUN, CRE, TBIL, UA): no significant changes
[6]; sub-acute oral, 600 μg/mice
  clinical abnormalities, morbidity, death: did not induce any clinical abnormalities, morbidity, or death
[7]; days 2 and 3, 1 mg/eye/day
  ocular signs: signs of lacrimation
[7]; rabbit eye, 7 days
  Corneal opacity, Grade: 0
  Iris lesion, Grade: 0
  Redness of conjunctivae, Grade: 0.1
[7]; rabbit eye
  Reversibility: yes
[8]
  dermal irritation, lesions, clinical signs: did not cause any irritation, lesions, or clinical signs

## FIHHIIGGLFSAGKAIHRLIRRRRR [TP4, Nile tilapia piscidin 4] [listing 1 of 2 here]
[9]
  clinical signs, acute oral toxicity: did not exhibit any abnormal clinical signs
[10]
  clinical complications, sub-acute oral toxicity: did not induce clinical complications
[11]; dermal exposure, 14 days observation period
  dermal toxicity: No mortality or damaging effects were observed
[11]
  appearance of the skin: no obvious lesions were observed
[12]
  ocular appearance: no ocular lesions were detected
[12]; Day 1
  Abnormality iris, grading: 0
  Chemosis, grading: 0
  Conjunctivae redness, grading: 0
  Corneal opacity, grading: 0
[12]; Day 3
  Abnormality iris, grading: 0
  Chemosis, grading: 0.1
  Conjunctivae redness, grading: 0
  Corneal opacity, grading: 0
[12]; Day 5
  Abnormality iris, grading: 0
  Chemosis, grading: 0.1
  Conjunctivae redness, grading: 0.1
  Corneal opacity, grading: 0.1
[12]; Day 7
  Abnormality iris, grading: 0
  Chemosis, grading: 0.1
  Conjunctivae redness, grading: 0
  Corneal opacity, grading: 0.1
[12]; Recovery, Day 14
  Abnormality iris, grading: 0
  Chemosis, grading: 0
  Conjunctivae redness, grading: 0
  Corneal opacity, grading: 0

## CC1(C)S[C@@H]2[C@H](NC(=O)[C@H](N)c3ccc(O)cc3)C(=O)N2[C@H]1C(=O)O [amoxicillin]
[13]
  morphology of H. pylori cells (TEM): low percentage of coccoid morphology
[14]; within 24 hr
  killing: 90%
[15]
  drug resistance index (MICp/MICs): increased slightly after passage 6, and remained constant thereafter
[16]
  ultrastructure of H. pylori cells (TEM): appeared as ‘ghost’ cells, with loose outer membranes

## CC[C@H]1OC(=O)[C@H](C)[C@@H](O[C@H]2C[C@@](C)(OC)[C@@H](O)[C@H](C)O2)[C@H](C)[C@@H](O[C@@H]2O[C@H](C)C[C@H](N(C)C)[C@H]2O)[C@](C)(OC)C[C@@H](C)C(=O)[C@H](C)[C@@H](O)[C@]1(C)O [clarithromycin]
[14]
  time taken to 90% reduction: > 24 h
[15]
  drug resistance index (MICp/MICs): gradually increased from passage 3 to the last passage

## QLQGKQVSGEVVQKVLQELIQSVAKP [TP5]
[1]
  MIC: >12 µg/mL
[2]
  MIC: >12 µg/mL
[3]
  MIC: >12 µg/mL
[4]
  MIC: >12 µg/mL

## FIHHIIGGLFSAGKAIHRLIRRRRR [TP4, Nile tilapia piscidin 4] [listing 2 of 2 here]
[1]
  MIC: 1.5 to 3 µg/mL
[2]
  MIC: 1.5 to 3 µg/mL
[3]
  MIC: 1.5 to 3 µg/mL
[4]
  MIC: 1.5 to 3 µg/mL
[17]
  dose dependent effect against H. pylori (killing): 99.99%

## CCCCCCCCCCCCOS(=O)(=O)[O-].[Na+] [SDS, reference compound]
[7]; rabbit eye, 7 days
  Corneal opacity, Grade: 2
  Redness of conjunctivae, Grade: 1
[7]; rabbit eye
  Reversibility: No
[7]; rabbit, in vivo
  Iris lesion, Grade: 0
[11]
  appearance of the skin: no obvious lesions were observed
[12]
  ocular appearance: severe lacrimation, swelling of the eyelids, and elevated blood vessels in conjunctivae
[12]; Day 1
  Abnormality iris, grading: 0
  Chemosis, grading: 1.5
  Conjunctivae redness, grading: 1
  Corneal opacity, grading: 1
[12]; Day 3
  Abnormality iris, grading: 0
  Chemosis, grading: 1.5
  Conjunctivae redness, grading: 1
  Corneal opacity, grading: 1
[12]; Day 5
  Abnormality iris, grading: 0
  Chemosis, grading: 2
  Conjunctivae redness, grading: 1
  Corneal opacity, grading: 1
[12]; Day 7
  Abnormality iris, grading: 0
  Chemosis, grading: 2
  Conjunctivae redness, grading: 1
  Corneal opacity, grading: 1
[12]; Recovery, Day 14
  Abnormality iris, grading: 0
  Chemosis, grading: 1.5
  Conjunctivae redness, grading: 0.5
  Corneal opacity, grading: 0.5

## FDWDSVLKGVEGFVRGYF [TP1]
[1]
  MIC: >12 µg/mL
[2]
  MIC: >12 µg/mL
[3]
  MIC: >12 µg/mL

## Cc1ncc([N+](=O)[O-])n1CCO [metronidazole]
[14]; 24 h
  course of cell count: initial decrease in cell count, but gradually lost activity
[15]
  drug resistance index (MICp/MICs): gradually increased from passage 3 to the last passage
